Assay results reported in patent US6518035B1, “Targeted methods of drug screening using co-culture methods” (Rosetta Inpharmatics, Inc., priority 1998, dated 2003).
Structures can show the parent of a compound that is named as a salt. Where two headings read alike, the source gives them in different places.

Assays:
Erg11p = Erg11p (Saccharomyces cerevisiae, UniProt P10614); conditions: 25 target and 25,000 decoy cells (1:1000), 225 μl, 30° C., up to ten days
Experimental: Target yeast cells overexpressing the ERG11 gene and GFP were mixed with decoy cells at a ratio of 1:1000 and portioned into 96-well plates. Each well contained 25 target cells and 25,000 decoy cells in 0.225 ml YM medium plus 2% casamino acids. 560 generic drugs from the MicroSource™ library were dispensed to each well to a final concentration of 5 μg/ml or 0.5 μg/ml and 1% DMSO. The plates were incubated at 30° C. for ten days.
To determine the specificity of the TDS assay, a chemical library of 560 compounds was screened using the same strains described in FIG. 2. […] The conditions chosen for the co-culture were 25 target cells and 25,000 decoy cells (1:1000 target: decoy ratio) in a volume of 225 μl.
Overnight cultures of the target and decoy cells were grown in YM medium plus 2% casamino acids to maintain selection for both episomal plasmids. One large batch of fresh medium (YM-Cas) was prepared that contained both target and decoy cells. This culture was diluted to 1×10^5 cells/ml and dispensed into the 96-well plates. Drugs from the Microsource library were then added to the cultures at two concentrations: 5 μg/ml plus 1% DMSO; and 0.5 μg/ml plus 0.1% DMSO. The plates were incubated at 30° C. Fluorescence and O.D.600 measurements were taken twice daily for ten days.

[1] = biological target: T1, ERG11 gene product, lanosterol 14α-demethylase (Saccharomyces cerevisiae, UniProt P10614); test: TDS co-culture pilot study with clotrimazole: ERG11/GFP-overexpressing target cells mixed with decoy cells, fluorescence readout; type: cell-based; conditions: 30° C., 88 h
T1 construct: expressed in transfected cells; host or cells: S. cerevisiae target strain ABY676 (plasmids pAB98 GFP, pAB99 ERG11), co-cultured with decoy strain ABY674 (empty vectors YEplac195, YEplac112)
T1 sequence (P10614 whole entry): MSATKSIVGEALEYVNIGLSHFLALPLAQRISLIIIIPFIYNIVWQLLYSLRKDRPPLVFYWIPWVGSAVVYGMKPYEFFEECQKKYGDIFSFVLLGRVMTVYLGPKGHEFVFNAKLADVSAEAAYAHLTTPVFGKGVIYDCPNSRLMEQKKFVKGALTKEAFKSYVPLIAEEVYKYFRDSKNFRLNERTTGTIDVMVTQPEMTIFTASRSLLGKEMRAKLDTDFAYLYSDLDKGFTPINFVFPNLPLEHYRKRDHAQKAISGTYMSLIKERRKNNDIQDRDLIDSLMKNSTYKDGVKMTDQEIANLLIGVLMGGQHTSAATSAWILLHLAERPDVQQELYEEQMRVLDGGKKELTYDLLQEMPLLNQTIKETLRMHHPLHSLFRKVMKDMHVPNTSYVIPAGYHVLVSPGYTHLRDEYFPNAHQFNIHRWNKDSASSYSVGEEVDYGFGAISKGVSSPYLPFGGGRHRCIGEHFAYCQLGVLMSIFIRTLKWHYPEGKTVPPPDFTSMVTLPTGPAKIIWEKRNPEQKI
Experimental: FIG. 2: A Signal to noise ratios of ERG11-target and decoy co-cultures grown in the presence of clotrimazole. Cultures were prepared at various ratios of target: decoy cells (columns). Each ratio was also prepared at various total number of cells per well and are indicated at the top. Clotrimazole, which inhibits the ERG11 gene product, was introduced by serial dilution (rows). The concentrations of clotrimazole are indicated to the left of the table. The volume of medium in each well was 0.225 ml. The plate was allowed to incubate at 30° C. for 88 h. Fluorescence signal was determined by subtracting the fluorescent values from a medium control plate from the fluorescence values of each well in the test plate. Signal to noise ratios were determined by dividing these corrected values with the corresponding values in the no-drug well in the bottom row. B O.D.600 values of co-cultures in each well after growth. C A fluorescent image of the source plate.
To determine the optimal assay conditions, various target:decoy ratios were tested in the presence of different clotrimazole concentrations (FIG. 2). Clotrimazole is an anti-fungal compound that inhibits the […] gene product, lanosterol 14α-demethylase, a sterol biosynthetic enzyme (Georgopapadakou and Walsh, 1996, Antimicrob Agents Chemother 40:279-291). […]
Target and decoy cells were mixed at 1:10, 1:100 and 1:1000 ratios in the presence of various concentrations of clotrimazole. […] Following incubation at 30° C. for 88 h, the fluorescence from each well was determined. The fluorescent values were corrected for the background fluorescence of the medium are represented as the fold increase over the fluorescent signal from the corresponding no-drug treatment.
The amount of growth of the cells was determined by measuring optical density at 600 nm in a Molecular Devices Spectra Max 250 plate spectrophotometer (FIG. 2B). A fluorescent image of the plate, which served as the source for quantitation of the fluorescent signals, is also presented (FIG. 2C).

[2] = test system: yeast target and decoy cells; test: Growth (O.D.600) of the target/decoy yeast co-cultures in the MicroSource library screen; type: cell-based, Saccharomyces cerevisiae; conditions: both concentrations (5 μg/ml and 0.5 μg/ml)
Experimental: The plates were incubated at 30° C.

Chain of Erg11p (P10614 whole entry): as above

SMILES	fluorescent signal of co-culture versus no-drug treatment (Erg11p; 0.5 μg/ml drug plus 0.1% DMSO)	fluorescent signal of co-culture versus no-drug treatment (Erg11p; 5 μg/ml drug plus 1% DMSO)	growth inhibition of co-culture [2]	other results
Clc1ccccc1C(c1ccccc1)(c1ccccc1)n1ccnc1 [clotrimazole]	significant fluorescent signal	significant fluorescent signal	–	clotrimazole concentration range producing significant fluorescent signals ([1]; 1:10 and 1:100 target:decoy ratios, highest density of cells per well): 0.2 to 5.6 µg/mL; clotrimazole concentration range producing significant fluorescent signals ([1]; 1:10 and 1:100 target:decoy ratios, serial dilutions of cells): 0.2 to 2.8 µg/mL; clotrimazole concentration range producing significant fluorescent signals ([1]; 1:1000 target:decoy ratio, each of the cell densities): 0.2 to 5.6 µg/mL
CCCCOc1ccc(C(=O)CCN2CCCCC2)cc1 [dyclonine-HCl]	–	–	severely inhibited growth	–
CN[C@@H](C)[C@H](O)c1ccccc1 [ephedrine-HCl]	–	–	severely inhibited growth	–
CC(=O)N1CCN(c2ccc(OCC3COC(Cn4ccnc4)(c4ccc(Cl)cc4Cl)O3)cc2)CC1 (stereo not drawn) [ketoconazole]	neither inhibited growth nor produced a positive signal	significant signal	–	–
Clc1ccc(COC(Cn2ccnc2)c2ccc(Cl)cc2Cl)c(Cl)c1 (stereo not drawn) [miconazole]	significant positive signals	too severe a growth inhibition to produce positive signals	–	–
C[CH2][Hg][S]c1ccccc1C(=O)[O-].[Na+] [thimerosol]	–	–	severely inhibited growth	–
